Data from US20240408081A1, “NOVEL SYNERGISTIC COMBINATIONS AND METHODS OF USE THEREOF FOR TREATING CANCERS” (UNIVERSITE DE BORDEAUX, priority 2021, published 2024).

Legend:
[1] = test system: Huh6 and HepG2 cells; experiment: Lipid droplets assay in hepatoblastoma cells; format: cell-based, human
Experimental: The cells were plated in 6-well plate at a density of 250,000 cells per well. […] After 48 hours of treatment, the cells were fixed in 4% PFA for 15 minutes then stained with the red oil for 15 minutes at room temperature. Finally, cells were washed several times and scanned using InCellis microscope (Bertin Technologies, France).

[2] = test system: NEM157i and SU-DIPG-IVi DMG cells; experiment: Apoptosis assay (Annexin V-PE / 7-AAD flow cytometry) in DMG cells; format: cell-based, human; conditions: 5 days of treatment
Text: After exposure to drugs at indicated concentrations and times, cells were labeled with Annexin V-PE (BD Biosciences, Le Pont de Claix, France) and 7-AminoActinomycin D (7-AAD) (BD Bioscience) and analyzed using Flow Cytometry as described.

[3] = test system: xenopus embryos; experiment: Toxicological assay in Xenopus embryos; format: in vivo; conditions: treated from gastrula stage
Text: Embryos were left in solution until untreated control embryos reached stage 41.

[4] = test system: H3K27me3 trimethylation; experiment: Western blot of H3K27me3 in DMG cells; format: cell-based, human
Experimental: Histone extraction was performed according to manufacturer's instructions (Histone Extraction Kit-ab113476, Abcam, Paris, France).
Cell lysates were prepared by scraping cells using RIPA buffer (Sigma Aldrich) plus proteinase inhibitors (Sigma Aldrich) and centrifuged at 13000 g for 15 min at 4° C. Protein concentrations were measured using Pierce™ BCATM Protein Assays (ThermoFisher) and equal amounts of cell extracts were loaded for western blot analysis in 4-15% precasted polyacrylamide gel (Bio-Rad). Proteins were blotted on a nitrocellulose membrane (Transblot® Turbo midi-size, Bio Rad), blocked with the Odyssey blocking buffer (LI-COR Biosciences, ScienceTec, Les Ulis, France) or with BSA diluted in Tris-buffered saline with 0.1% Tween 20 (TBST) and probed with primary antibodies overnight at 4° C. […] Quantification was performed using ImageJ (National Institutes of Health, Bethesda, Maryland, USA).

[5] = test system: Huh6 and HepG2 hepatoblastoma cells; experiment: Growth and viability of hepatoblastoma cells (Huh6 and HepG2), 2D and 3D spheroid; format: cell-based, human
Experimental: (§1) For 2D culture, a total of 2,000 cells/well for Huh6 and 3,000 cells/well for HepG2 were seeded in 96-well microtiter plates. Cell growth was measured at 24 h, 48h, 72h or 96h after genetic manipulation and at 48h or 72h after drug treatment using the in vitro MTS assay Kit or Sulforhodamine B (SRB, Absorbance at 565 nm) assay (Sigma) following manufacturer's instructions. For 3D culture, spheroids were formed as described above and microplates were incubated in an IncuCyte® S3 live cell analysis system and scanned every 8 hours. For genetic manipulation, the lentiviral transductions or the gene depletions were done before the plating. For drug treatments, depending on the experiment and the drug, spheroids were treated at day 4 or 5 for 48h or 72h. Cell viability assay in spheroids was done using 1 μM calcein AM (BioLegend) and 2 μM ethidium homodimer 1 (Sigma) for 30 minutes at 37° C. Spheroids were imaged using an IncuCyte® S3 live cell analysis system. For all cell viability assays, drugs were used at half maximal inhibitory concentration (IC50).

[6] = test system: H3K27me3, HMGCR; experiment: Western blots of H3K27me3 and HMGCR in hepatoblastoma cells; format: cell-based, human; conditions: Huh6 and HepG2
Experimental: Cells were lysed and total proteins were extracted 48 hours after treatment or 72 hours after genetic manipulation using a mixture of RIPA buffer (Sigma), protease inhibitors and phosphatase inhibitor cocktail (Roche). After protein quantification with BCA Protein Assays (ThermoFisher), 40 μg of total proteins were loaded in 4-15% pre-casted gels (Bio-Rad) for migration. Then, proteins were transferred onto a nitrocellulose membrane (Transblot® Turbo midi-size, Bio Rad). The membranes were blocked with 5% BSA or Odyssey blocking buffer (LI-COR Biosciences) and detected with the corresponding antibodies (Table 2). The revelation was performed by chemiluminescence using Fusion FX (Vilber Lourmat) and quantification was done using ImageJ software (National Institutes of Health, Bethesda, Maryland, USA).

[7] = test system: DMG cell lines including primary BXdmg1 cells; experiment: DMG spheroid formation assay; format: cell-based, human; conditions: 24 hours; GSK-126 20 μM for NEM157i and 15 μM for the others
Experimental: For spheroid formation assays, 10^4 cells were used per well in a 96-well plate. Volume of methylcellulose/medium/cells and inhibitors (10, 15 or 20 μM) mixture per well was 100 μL with a final concentration of methylcellulose at 0.5%. After rapid and gentle homogenization, the mixture was placed on a round-bottom cell culture microplate (U-shaped) treated to limit cell adhesion. After, spheroids were incubated in an incubator at 37° C. and 5% CO2 for 24 hours. Photos and films of spheroids were taken by an InCellis cell imager (Bertin instruments, Montigny-le-bretonneux, France).

[8] = test system: HepG2 cells; experiment: Cell viability assay (CellTiter 96 AQueous One / MTS) in HepG2; format: cell-based, human
Experimental: as §1

[9] = test system: patients with relapsed/refractory solid tumors and hematologic malignancies; conditions: cited from earlier work

## CC[C@H](C)n1cc(C)c2c(C(=O)NCc3c(C)cc(C)[nH]c3=O)cc(-c3ccc(N4CCNCC4)nc3)cc21 [GSK-126, 1-[(2S)-butan-2-yl]-N-[(4,6-dimethyl-2-oxo-1H-pyridin-3-yl)methyl]-3-methyl-6-[6-(1-piperazinyl)-3-pyridinyl]-4-indolecarboxamide]
[1]
  synthesis of lipids: triggered
[2]
  tumor cell apoptosis: increase in tumor cell apoptosis
[3]
  toxic dose in xenopus embryos: 1 mM
[4]; BXdmg1 cells, histone-purified protein extracts
  H3K27me3 trimethylation: reduced H3K27me3 trimethylation in a dose-dependent manner
[4]; NEM157i and SU-DIPG-IVi DMG cells
  H3K27me3 trimethylation: efficiently inhibited
[5]; 72 h, 4 μM Simvastatin or 8 μM Atorvastatin
  sensitivity of Huh6 and HepG2 cells in presence of Simvastatin or Atorvastatin: significantly increased (at least twice)
[5]; Homo sapiens, hepatoblastoma cells, 48 h
  IC50: 6 to 8 µM
[6]; GSK-126 at IC50
  trimethylation of histone H3 Lysine 27: reduced
[6]
  expression of HMGCR: triggered
[7]
  spheroid formation: spheroid formation was affected
[8]
  IC25 dose: 4 µM
[8]; Homo sapiens
  IC50: 8 µM
[9]; at the MTD
  clinical activity: inadequate clinical activity
[9]; human, in vivo
  half-life: relatively short
[9]; twice weekly intravenous, 28 days (3 weeks on/1 week off)
  maximum tolerated dose (MTD): 2,400 mg
